Measurements: patent US10662164B2, “Non-beta lactam antibiotics” (University of Notre Dame du Lac, priority 2014, dated 2020)
Converted amounts (≈) assume the structure as drawn. Like-named read-outs stand apart in the source and are kept apart here. Marks after values point to notes of the source that are not given here. Blank lines part the entries; values can stand above or below the compound they belong to.

Legend:
S. aureus ATCC 29213 = test: MIC determination; format: cell-based, Staphylococcus aureus; details: Staphylococcus aureus, ATCC29213, quality-control, methicillin-susceptible strain; Tables 1 and 5; read-out: MIC
B. cereus ATCC 13061 = test: MIC determination; format: cell-based; details: Bacillus cereus, ATCC13061; Tables 1 and 5; read-out: MIC
Source text: (§1) The ESKAPE organisms (E. faecium NCTC (ATCC 19734), S. aureus ATCC 29213, K. pneumonia ATCC 700603, A. baumannii ATCC 17961, P. aeruginosa ATCC 17853, E. aerogenes ATCC 35029) and E. coli ATCC 25922) in the initial screen, S. aureus ATCC 27660, S. epidermis ATCC 35547, S. haemolyticus ATCC 29970, S. oralis ATCC 9811, S. pyogenes ATCC 49399, B. cereus ATCC 13061, B. licheniformis ATCC 12759, and E. faecalis ATCC 29212 were purchased from the American Type Culture Collection (Manassas, Va., USA). S. aureus strains NRS100, NRS119, NRS120, VRS1, and VRS2 were obtained from the Network on Antimicrobial Resistance in Staphylococcus aureus (Chantilly, Va., USA). E. faecalis strains 201 and 99, and E. faecium strains 119-39A and 106 were collected from Wayne State University School of Medicine.
(§2) The procedure for MIC determination was the same as previously reported (Tran et al., Am. J. Clin. Dermatol. 2015; doi 10.1007/S40257-015-0125-9).

[1] = system: B. licheniformis ATCC 12759; test: MIC determination; format: cell-based; details: Bacillus licheniformis, ATCC12759; Tables 1 and 5; read-out: MIC
Source text: as §1, §2

E. faecalis 201 (Van S) = test: MIC determination; format: cell-based; details: Enterococcus faecalis; vancomycin-susceptible clinical isolate; Tables 1 and 5; read-out: MIC
Source text: as §1, §2

E. faecalis 99 (Van R) = test: MIC determination; format: cell-based; details: Enterococcus faecalis; vancomycin-resistant clinical isolate; Tables 1 and 5
Source text: as §1, §2

E. faecalis ATCC 29212 = test: MIC determination; format: cell-based; details: Enterococcus faecalis, ATCC29212; quality-control strain; Tables 1 and 5; read-out: MIC
Source text: as §1, §2

E. faecium 106 (Van R) [2] = test: MIC determination; format: cell-based; details: Enterococcus faecium
Source text: as §1, §2

[3] = system: E. faecium 119-39A (Van S); test: MIC determination; format: cell-based; details: Enterococcus faecium
Source text: as §1, §2

S. aureus ATCC 27660 [4] = test: MIC determination; format: cell-based; details: Staphylococcus aureus, ATCC27660; mecA positive, resistant to methicillin, oxacillin, tetracycline; Tables 1 and 5; read-out: MIC
Source text: as §1, §2

S. aureus NRS100 (COL) = test: MIC determination; format: cell-based; details: Staphylococcus aureus, mecA positive, resistant to methicillin, oxacillin, tetracycline, Tables 1 and 5, read-out: MIC
Source text: as §1, §2

S. aureus NRS119 = test: MIC determination; format: cell-based; details: Staphylococcus aureus, mecA positive, linezolid-resistant, Tables 1 and 5, read-out: MIC
Source text: as §1, §2

S. aureus NRS120 = test: MIC determination; format: cell-based; details: Staphylococcus aureus, mecA positive, linezolid-resistant, Tables 1 and 5, read-out: MIC
Source text: as §1, §2

S. aureus VRS1 [5] = test: MIC determination; format: cell-based; details: Staphylococcus aureus; vancomycin-resistant MRSA (vanA) isolate from Michigan; Tables 1 and 5; read-out: MIC
Source text: as §1, §2

S. aureus VRS2 = test: MIC determination; format: cell-based; details: Staphylococcus aureus; vancomycin-resistant MRSA (vanA) isolate from Pennsylvania; Tables 1 and 5; read-out: MIC
Source text: as §1, §2

S. epidermis ATCC 35547 [6] = test: MIC determination; format: cell-based
Source text: as §1, §2

[7] = system: S. haemolyticus ATCC 29970; test: MIC determination; format: cell-based; details: Staphylococcus haemolyticus, ATCC29970; Tables 1 and 5; read-out: MIC
Source text: as §1, §2

S. oralis ATCC 9811 = test: MIC determination; format: cell-based; details: Streptococcus oralis, ATCC9811
Source text: as §1, §2

S. pyogenes ATCC 49399 = test: MIC determination; format: cell-based; details: Streptococcus pyogenes, ATCC49399
Source text: as §1, §2

E. faecium NCTC 7171 = test: MIC determination; format: cell-based, Enterococcus faecium; details: Enterococcus faecium, NCTC7171
S. aureus ATCC 27660 [8] = test: Mouse peritonitis model of infection; format: in vivo; details: po, single dose given at 1 h after infection
Protocol: Compounds 60b, 60c, 65b, 66b, 75b and 76b were evaluated in the mouse peritonitis model of infection (Table 2). We used the ICR out-bred strain of mice that provides a heterogeneous population, similar to the human situation, thus, ensuring the relevance of the antibacterial effect. This animal model of infection is widely used, it is easy to carry out, and the end points (death or survival) are rapidly assessed, making it less resource-intensive compared to other infection models. In addition, excellent correlation between MIC and ED50 has been shown for 14 β-lactam antibiotics using this model (Kratochwil et al., Biochem. Pharmacol. 2002, 64, 1355). The mouse peritonitis infection model continues to be an important model for evaluation of the efficacy of antibiotics against human pathogens. We use the iv route of administration in initial efficacy studies, as this allows us to test the efficacy without knowledge of the oral bioavailability of the lead. Evaluation was done at 20 mg/kg.
Female ICR mice (6-8 weeks old, ˜20-g body weight) were used for the PK and peritonitis studies. Animals were purchased from Harlan Laboratories, Inc. (Indianapolis, Ind., USA) and given Teklad 2019 Extruded Rodent Diet and water ad libitum. Mice were maintained in polycarbonate shoebox cages with ¼″ corncob (The Andersons Inc., Maumee, Ohio) and Alpha-dri (Sheperd Specialty Papers, Inc., Richland, Mich.) bedding under 12-h light/12-h dark cycle at 72±2° F.
The mouse peritonitis model was used with S. aureus ATCC 27660, as described previously (Tran et al., Am. J. Clin. Dermatol. 2015; doi 10.1007/S40257-015-0125-9). The final bacterial inocula contained 5×10^7 cfu/mL and 5% mucin (Sigma-Aldrich Chemical Co., St Louis, Mo., USA). Just prior to inoculation, bacteria at 10^8 cfu/mL were mixed 1:1 with 10% mucin. Mice (n=6 per group) were given 0.5 mL of the bacterial inocula intraperitoneally. Mice were given two iv doses of the compounds at 30 min and 7.5 h after infection by tail vein injection. […] Mice were monitored for 48 h, at which time the number of surviving mice were counted.
The effective dose that results in survival of 50% of the mice was determined using Probit analysis (XLSTAT, New York, N.Y.). Groups of six mice per dose level were evaluated in the mouse peritonitis infection model at iv doses of 2.5, 5, 7.5, 10, 15, and 20 mg/kg and after po doses at 2.5, 5, 10, 20, and 40 mg/kg. […]

[9] = cited from earlier work
S. aureus VRS1 [10] = details: vancomycin, data from reference 10; Table 5; cited from earlier work
S. epidermis ATCC 35547 [11] = details: vancomycin, data from reference 10; Table 5; cited from earlier work
[12] = system: E. faecium 119-39A (Van S); details: vancomycin, data from reference 10; Table 5; cited from earlier work
E. faecium 106 (Van R) [13] = details: vancomycin, data from reference 10; Table 5; cited from earlier work
E. faecium C68 = details: vancomycin, data from reference 12; Table 5; cited from earlier work

MIC (S. aureus ATCC 29213): 4 µg/mL (≈ 11.9 µM)
MIC (B. cereus ATCC 13061): 1 µg/mL (≈ 2.96 µM)
MIC [1]: 1 µg/mL (≈ 2.96 µM)
MIC (E. faecalis 201 (Van S)): 2 µg/mL (≈ 5.93 µM)
MIC (E. faecalis 99 (Van R)): 1 µg/mL (≈ 2.96 µM)
MIC (E. faecalis ATCC 29212): 2 µg/mL (≈ 5.93 µM)
MIC (E. faecium 106 (Van R) [2]; vancomycin-resistant clinical isolate, Tables 1 and 5, read-out: MIC): 1 µg/mL (≈ 2.96 µM)
MIC ([3]; vancomycin-susceptible clinical isolate, Tables 1 and 5, read-out: MIC): 2 µg/mL (≈ 5.93 µM)
MIC (S. aureus ATCC 27660 [4]): 2 µg/mL (≈ 5.93 µM)
MIC (S. aureus NRS100 (COL)): 2 µg/mL (≈ 5.93 µM)
MIC (S. aureus NRS119): 32 µg/mL (≈ 94.9 µM)
MIC (S. aureus NRS120): 32 µg/mL (≈ 94.9 µM)
MIC (S. aureus VRS1 [5]): 2 µg/mL (≈ 5.93 µM)
MIC (S. aureus VRS2): 2 µg/mL (≈ 5.93 µM)
MIC (S. epidermis ATCC 35547 [6]; Tables 1 and 5, read-out: MIC): 1 µg/mL (≈ 2.96 µM)
MIC (S. oralis ATCC 9811; Table 1, read-out: MIC): 1 µg/mL (≈ 2.96 µM)
MIC (S. pyogenes ATCC 49399; Table 1, read-out: MIC): 1 µg/mL (≈ 2.96 µM)
MIC (E. faecium NCTC 7171; Table 1, read-out: MIC): 2 µg/mL (≈ 5.93 µM)
Compound: CC(=O)NC[C@H]1CN(c2ccc(N3CCOCC3)c(F)c2)C(=O)O1 [linezolid, reference compound]
MIC [7]: 2 µg/mL (≈ 5.93 µM)
ED50 (S. aureus ATCC 27660 [8]; Staphylococcus aureus, ATCC27660, read-out: ED50): 2.8 mg/kg
ED50 (S. aureus ATCC 27660 [8]): 2.8 mg/kg

Compound: Cc1onc(-c2ccccc2)c1C(=O)N[C@@H]1C(=O)N2[C@@H]1SC(C)(C)[C@@H]2C(=O)O [oxacillin]
Plasma protein binding [9]: > 91%

Compound: CN[C@H](CC(C)C)C(=O)N[C@H]1C(=O)N[C@@H](CC(N)=O)C(=O)N[C@H]2C(=O)N[C@H]3C(=O)N[C@H](C(=O)N[C@H](C(=O)O)c4cc(O)cc(O)c4-c4cc3ccc4O)[C@H](O)c3ccc(c(Cl)c3)Oc3cc2cc(c3O[C@@H]2O[C@H](CO)[C@@H](O)[C@H](O)[C@H]2O[C@H]2C[C@](C)(N)[C@H](O)[C@H](C)O2)Oc2ccc(cc2Cl)[C@H]1O [vancomycin, reference compound]
MIC (E. faecium 106 (Van R) [2]): 256 µg/mL (≈ 177 µM)
MIC [3]: 0.5 µg/mL (≈ 0.345 µM)
MIC (S. epidermis ATCC 35547 [6]): 16 µg/mL (≈ 11 µM)
MIC (S. oralis ATCC 9811): 0.5 µg/mL (≈ 0.345 µM)
MIC (S. pyogenes ATCC 49399): 0.6 µg/mL (≈ 0.414 µM)
MIC (E. faecium NCTC 7171): 0.5 µg/mL (≈ 0.345 µM)
MIC (S. aureus VRS1 [10]): 512 µg/mL (≈ 353 µM)
MIC (S. epidermis ATCC 35547 [11]): 16 µg/mL (≈ 11 µM)
MIC [12]: 0.5 µg/mL (≈ 0.345 µM)
MIC (E. faecium 106 (Van R) [13]): 256 µg/mL (≈ 177 µM)
MIC (E. faecium C68): 64^k μg/mL

Compound: teicoplanin
Plasma protein binding [9]: > 91%
